Measurements reported in patent US5925372A, “Mixed solvent mutually enhanced transdermal therapeutic system” (Novartis Corporation, priority 1991, dated 1999).
Like-named read-outs stand apart in the source and are kept apart here.

Experiments:
[1] = Charge state in aqueous solutions; assay type: physicochemical
[2] = assay type: in vitro ADME, human; settings: 0.7 volume fraction of ethanol; active agent at saturation
Excerpt: FIG. 4 is a graph of the flux of (±) trans-1,3,4,4a,5,10b-hexahydro-4-propyl-2H-[1]benzopyrano[3,4-b]pyridin-9-ol monohydrochloride, an ionizable drug which is a dopamine autoreceptor agonist, across human epidermis from ethanol: water (7:3) versus pH of that aqueous ethanol solution. In aqueous solutions, the drug is […] charged below pH 6.5.
This Example is based on FIG. 4 in which the dopamine autoreceptor agonist, (±)trans-1,3,4,4a,5,10b-hexahydro-4-propyl-2H-[1]benzopyrano[3,4-b]pyridin-9-ol, an ionizable drug, permeates skin. For this drug the optimal pH of an ethanol:water donor which is 0.7 volume fraction of ethanol is in the range of 4. A microporous membrane such as a microporous polypropylene and a silicone adhesive may be used. The active agent is present at saturation.

[3] = Fluxes through ethylene vinyl acetate membranes (Table 1); settings: for Nitroglycerin flux through ethylene vinyl acetate membrane: ethanol:water (7:3) reservoir saturated with nitroglycerin on lactose; for ^3 H2 O flux through ethylene vinyl acetate membrane: ethanol:water (7:3) reservoir
Description: (§1) For convenience purposes, this is measured by placing a portion of membrane or membrane/adhesive laminate in a diffusion cell and filling one side with a 70%, aqueous ethanol. After a period of time the amounts of water and alkanol that have crossed the membrane are determined. Typically, when measuring ethanol flux, the receiver side is water. When measuring water flux, either a) the donor side is ^3 H2 O and the receiver side is water or b) the donor side is water and the receiver side is air.

[4] = Description: FIG. 2 is a graph of the steady-state flux of ethanol across human epidermis versus the volume fraction of ethanol in the donor solution.
This Example is based on FIGS. 1-3. […] The reservoir contains 1.7 ml of ethanol, 0.3 ml water, 200 mg of progesterone as the drug, and 2% Klucel as a gelling agent. […] A volume fraction of 0.85 is chosen to allow for the back flux of water and depletion of ethanol during the use of the system.

[5] = commercial estradiol system, cited from earlier work
[6] = Fluxes of nitroglycerin through skin and ethylene vinyl acetate membranes (Table 2); assay type: in vitro ADME
[7] = Flux of nitroglycerin and ethanol through epidermis, with and without membrane (FIGS. 5 and 6); settings: FIG. 6
Excerpt: FIG. 5 is a graph of the flux of nitroglycerin across epidermis versus the volume fraction of ethanol in the aqueous ethanol reservoir.
FIG. 6 is a graph of the flux of nitroglycerin versus the flux of ethanol for two different membrane thicknesses and epidermis as compared to epidermis alone.
These Examples are based on FIGS. 5 and 6. A 0.65 volume fraction of ethanol is used in the reservoir. The systems have a 10 cm^2 surface area, and use a polyester impermeable backing, a polyurethane membrane, and a silicone adhesive. […] Above a volume fraction of 0.8 ethanol, a safety hazard or transportation law infraction may be incurred with nitroglycerin unless the nitroglycerin is kept below 10%.

[8] = Fluxes of nitroglycerin and ethanol through 32.8% vinyl acetate membrane plus skin with and without silicone face adhesive (Table 3)
Excerpt: (§2) In current-marketed transdermal devices, the adhesive is typically between 1.5 and 3 mils thick and is on the face of the device.

[9] = Water and ethanol flux through the combined membrane adhesive laminate; settings: 32.8% vinyl acetate membrane plus 2 mil silicone face adhesive
Description: as §1, §2

[10] = cited from earlier work
[11] = cited from earlier work; remark: listed apart in the source
[12] = cited from earlier work; remark: listed apart in the source
[13] = Flux of progesterone across membrane and adhesive on human epidermis (FIG. 3); assay type: in vitro ADME; settings: 1 mil polyurethane membrane and silicone adhesive
Excerpt: FIG. 3 is a graph of the flux of progesterone across a membrane and adhesive on human epidermis versus volume fraction of ethanol in the aqueous ethanol reservoir.
(§3) This Example is based on FIGS. 1-3.

[14] = Steady-state flux of progesterone across the epidermis versus volume fraction of ethanol in donor (FIG. 1); assay type: in vitro ADME
Excerpt: as §3

[15] = cited from earlier work; remark: listed apart in the source

Q: With `CCCN1CCC[C@@H]2c3cc(O)ccc3OC[C@H]21.Cl` (racemic) [(±) trans-1,3,4,4a,5,10b-hexahydro-4-propyl-2H-[1]benzopyrano[3,4-b]pyridin-9-ol monohydrochloride] as the compound, how does the “pH below which the drug is negatively charged in aqueous solutions” value [1] read?
A: < 6.5

Q: With `CCCN1CCC[C@@H]2c3cc(O)ccc3OC[C@H]21` (racemic) [(±)trans-1,3,4,4a,5,10b-hexahydro-4-propyl-2H-[1]benzopyrano[3,4-b]pyridin-9-ol] as the compound, how does the “Optimal pH of ethanol:water donor for skin permeation” value [2] read?
A: ~4

Q: Which results are given for `CCO` [Ethanol, ethanol]?
A: Dependence of permeation on vinyl acetate content [3]: increase with vinyl acetate content; Volume fraction of ethanol at which ethanol flux through skin is optimized [4]: 0.4-0.85 volume fraction of ethanol; Ethanol permeability of rate-limiting membrane ([5]; neat ethanol gel reservoir): ~400 mcg/cm^2 /hr

Q: With `O=[N+]([O-])OCC(CO[N+](=O)[O-])O[N+](=O)[O-]` [Nitroglycerin, nitroglycerin] as the compound, how does the “Rate control of nitroglycerin permeation” value ([6]; 1 mil ethylene/vinyl acetate membranes) read?
A: the skin controls the rate of nitroglycerin permeation

Q: What about the “Improvement of nitroglycerin flux through skin over the best of previously disclosed systems” value ([6]; membranes of higher vinyl acetate content) of the same compound?
A: ≤ 2 factor

Q: What about the “Flux of nitroglycerin through skin and ethylene vinyl acetate membrane” value ([6]; vinyl acetate content 9%) of the same compound?
A: 30 mcg/cm^2 /hr

Q: What about the “Flux of nitroglycerin through skin and ethylene vinyl acetate membrane” value ([6]; vinyl acetate content 18%) of the same compound?
A: 60 mcg/cm^2 /hr

Q: What about the “Flux of nitroglycerin through skin and ethylene vinyl acetate membrane” value ([6]; vinyl acetate content 28%) of the same compound?
A: 66 mcg/cm^2 /hr

Q: What about the “Flux of nitroglycerin through skin and ethylene vinyl acetate membrane” value ([6]; vinyl acetate content 40%) of the same compound?
A: 120 mcg/cm^2 /hr

Q: And the “Nitroglycerin flux through ethylene vinyl acetate membrane” value ([3]; vinyl acetate content 9%)?
A: 2.4 ± 0.3 mg/h

Q: What about the “Nitroglycerin flux through ethylene vinyl acetate membrane” value ([3]; vinyl acetate content 18%) of the same compound?
A: 5 ± 0.7 mg/h

Q: And the “Nitroglycerin flux through ethylene vinyl acetate membrane” value ([3]; vinyl acetate content 28%)?
A: 10 ± 0.5 mg/h

Q: And the “Nitroglycerin flux through ethylene vinyl acetate membrane” value ([3]; vinyl acetate content 40%)?
A: 21 ± 0.3 mg/h

Q: What about the “Relation of nitroglycerin flux versus ethanol flux through skin and membrane adhesive laminates” value [7] of the same compound?
A: The nitroglycerin follows the ethanol through skin

Q: What about the “Improvement of nitroglycerin flux by optimization of adhesive and membrane layers” value ([8]; 32.8% vinyl acetate membrane, peripheral versus 2 mil silicone face adhesive) of the same compound?
A: more than a factor of two

Q: What about the Nitroglycerin flux ([8]; Membrane alone and skin, 32.8% vinyl acetate membrane, ethanol:water (85:15) reservoir) of the same compound?
A: 82 ± 26 mcg/cm^2 /hr

Q: And the Nitroglycerin flux ([8]; Membrane and adhesive (2 mil silicone face adhesive) and skin, 32.8% vinyl acetate, ethanol:water (85:15) reservoir)?
A: 37 ± 10 mcg/cm^2 /hr

Q: And the Nitroglycerin flux ([8]; Skin alone from ethanol:water (70:30))?
A: 85 ± 15 mcg/cm^2 /hr

Q: And the Nitroglycerin flux ([8]; Skin alone without ethanol in donor)?
A: 15 ± 7 mcg/cm^2 /hr

Q: For `[3H]O[3H]` [^3 H2 O, tritiated water], which “Dependence of permeation on vinyl acetate content” value ([3]; until reservoir composition of ethanol and water is delivered to skin surface) is on record?
A: increase with vinyl acetate content

Q: What about the “^3 H2 O flux through ethylene vinyl acetate membrane” value ([3]; vinyl acetate content 9%) of the same compound?
A: 0.5 mg/h

Q: And the “^3 H2 O flux through ethylene vinyl acetate membrane” value ([3]; vinyl acetate content 18%)?
A: 4 ± 0.3 mg/h

Q: And the “^3 H2 O flux through ethylene vinyl acetate membrane” value ([3]; vinyl acetate content 28%)?
A: 17 ± 3 mg/h

Q: What about the “^3 H2 O flux through ethylene vinyl acetate membrane” value ([3]; vinyl acetate content 40%) of the same compound?
A: 63 ± 9 mg/h

Q: What about the “Tritiated water flux through combined membrane adhesive laminate” value [9] of the same compound?
A: smaller than the range disclosed by this invention

Q: With `C[C@]12CC[C@@H]3c4ccc(O)cc4CC[C@H]3[C@@H]1CC[C@@H]2O` [estradiol] as the compound, how does the “Flux of estradiol through hairless mouse skin, neat versus aqueous ethanol” value [10] read?
A: neat ethanol increases skin permeation better than aqueous ethanol

Q: What about the “Skin permeation of estradiol from neat ethanol versus aqueous ethanol donor solutions” value [11] of the same compound?
A: skin permeation from neat ethanol is as good or better than from aqueous ethanol donor solutions

Q: With `C#C[C@]1(O)CC[C@H]2[C@@H]3CCC4=CC(=O)CC[C@@H]4[C@H]3CC[C@@]21CC` [levonorgestrel] as the compound, how does the “Flux of levonorgestrel through rat skin, neat versus aqueous ethanol” value [12] read?
A: neat ethanol increases skin permeation better than aqueous ethanol

Q: With `CC(=O)[C@H]1CC[C@H]2[C@@H]3CCC4=CC(=O)CC[C@]4(C)[C@H]3CC[C@]12C` [progesterone] as the compound, how does the “Volume fraction of ethanol at optimum of skin permeation with membrane and adhesive” value [13] read?
A: ~0.7 volume fraction of ethanol

Q: And the “Progesterone flux across epidermis from optimized aqueous ethanol reservoir” value ([14]; compared to both neat water and neat ethanol)?
A: large increase in the flux

Q: And the “Volume fraction of ethanol at which progesterone flux through skin is optimized” value ([14]; not including the drug or gelling agent)?
A: 0.4-0.85 volume fraction of ethanol

Q: For `O=C(O)c1ccccc1O` [salicylic acid], which “Flux of salicylic acid through human skin, neat versus aqueous ethanol” value [15] is on record?
A: neat ethanol increases skin permeation better than aqueous ethanol

Q: Which “Water permeability of rate-limiting membrane” value [5] does the source give for `O` [water] here?
A: relatively impermeable to water
